One data set deals with substance P. As to conditions: comparison with capsaicin; prevents pain sensation without compromising touch or motor coordination; cited from earlier work.
A short description of data set [1]: Use of capsaicin to induce salivation: application to oral mucosa of a human subject, saliva collected for 15 minutes. It is filed as in vivo. The method, then:
A subject was used as a test subject to determine whether application of capsaicin to oral mucosa causes salivation. Approximately 0.25 inches of capsaicin (0.025% generic capsaicin cream) was applied to the oral mucosa. […] Saliva was collected for a period of about 15 minutes in a paper cup. The amount was compared to the amount of saliva collected for a period of 15 minutes before applying capsaicin to the oral mucosa. […] The increased salivation continued for approximately an hour. In preferred embodiments of the present invention, capsaicin or capsaicinoid is combined with one or more of the following: antihistamines such as Benadryl®, or other antihistamines, antibacterials, antifungals, antivirals, and/or antipruritis medications, such as those described above.

For data set [2] the following is noted: cited from earlier work.

As for `COc1cc(CNC(=O)CCCC/C=C\C(C)C)ccc1O` [Civamide, cis-capsaicin], the “depletion of substance P compared with capsaicin” value in the data set on substance P was “more effective than capsaicin in depleting substance P”.

For `COc1cc(CNC(=O)CCCC/C=C/C(C)C)ccc1O` [capsaicin], in data set [1] (one subject, 0.025% capsaicin cream on oral mucosa), the “duration of increased salivation” value is reported as “approximately an hour”. Also, in data set [1] (one subject, about 0.25 inches of 0.025% capsaicin cream on oral mucosa, saliva collected about 15 minutes vs 15 minutes before application, estimated), the “increase in salivation relative to baseline level of salivation” value is “about two to three times the baseline level”. Also, the “sensation reported by the subject after application” value in data set [1] (within a few minutes of application, increased in intensity for about twenty minutes) was “warm feeling in the mouth”.

Take `CC[C@@H]1C(=O)OC[C@@H]1Cc1cncn1C` [pilocarpine]: the “stimulation of salivary glands” value in data set [2] (patients experiencing xerostomia due to radiotherapy) is given as “effective in stimulating salivary glands”. Moreover, the “side effects of treatment” value in data set [2] (pilocarpine treatment) was “often associated with side effects involving heart, blood pressure, digestion and profuse sweating”.

The values above are taken from patent US20030082249A1, “Compositions containing capsaicin and its derivatives, and their use in treating mucositis” (Ovation Pharmaceuticals, priority 2001, published 2003).
